What was measured:
Tyk-2 = Tyk-2 (Homo sapiens (Human), UniProt P29597); assay: Tyk-2 enzyme activity assay (Thermo Fisher SelectScreen, Z-lyte); type: biochemical; details: read-out: Tyk-2 Inhibition IC50
Outline: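 Z-lyte FRET assay: 3.75–15 ng TYK2 with […] Tyr 03 peptide in HEPES pH 7.0, MgCl2, EGTA, BRIJ-35; 1 h reaction, then development reagent. 11-point dose-response, 2% DMSO; IC50 via 4-parameter fit of emission ratio, background without enzyme.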

[1] = test system: IL-12 stimulated STAT4 phosphorylation on Tyr693 (JAK2/TYK2); assay: JAK2/TYK2 cellular target modulation: IL-12 stimulated phospho-STAT4 in PBMC; type: cell-based; details: human PBMC, IL-12 1.7 ng/ml; read-out: IL12-STAT4 IC50
Source text: JAK Cellular Target Modulation Assays
Target modulation was based upon the ability of a compound to inhibit JAK isoform specific phosphorylation of selected substrates. IL-2 stimulated STAT5 phosphorylation on Tyr694 was used to assess JAK1/3 compound selectivity. GM-CSF stimulated STAT5 phosphorylation on Tyr694 was used to assess JAK2 compound selectivity. IFNγ stimulated STAT1 phosphorylation on Tyr701 was used to assess JAK1/2 compound selectivity. IL-12 stimulated STAT4 phosphorylation on Tyr693 was used to assess JAK2/TYK2 compound selectivity. For all four assays, human PBMC from frozen stocks were thawed, pelleted, resuspended in complete media (90% RPMI, 10% heat inactivated FBS, 10 mM HEPES, 47 μM 2-ME, pen/strep) and placed in wells of a 96 well V-bottom plate at 200,000 per well in 120 μl complete media. Compounds were added as 15 μl per well of 10× working stock solutions in complete media with 1% DMSO (or medium with 1% DMSO for controls) and placed on a plate shaker in a 37° C. incubator with 5% CO2 for 1 hour with gentle shaking (setting of 3). Stimulation used the addition of soluble cytokines. For the JAK1/3 phospho-STAT5 assay, 15 μl of 10× working stock recombinant human IL-2 was added to a final concentration of 25 ng/ml. For the JAK2 phospho-STAT5 assay, 15 μl of 10× working stock recombinant human GM-CSF was added to a final concentration of 5 ng/ml. For the JAK1/2 phospho-STAT1 assay, 15 μl of 10× working stock of recombinant human IFNγ was added to a final concentration of 10 ng/ml. For the JAK2/TYK2 phospho-STAT4 assay, 15 μl of 10× working stock of recombinant human IL-12 was added to a final concentration of 1.7 ng/ml. Plates were then placed back on the plate shaker in the incubator for an additional 5, 5, 10, and 25 minutes respectively upon which the plates were removed from the incubator, sealed with a plate sealer and the cells pelleted at 400×g for 5 minutes. After pelleting, the media was removed by aspiration and the cells were lysed in assay specific cell lysis buffer. The levels of phospho-STATS were determined using a Phospho (Tyr694) STAT5a,b Whole Cell Lysate kit from Meso Scale Discovery. Levels of phospho-STAT1 were determined using a CST-PathScan Phospho-STAT1 (Tyr701) Sandwich ELISA kit. Levels of phospho-STAT4 were determined using a Phospho-STAT4 (Tyr693) Whole Cell Lysate kit from Meso Scale Discovery.

JAK3 (a.a. 781-1124) = JAK3 (a.a. 781-1124) (Homo sapiens (Human), UniProt P52333); assay: JAK3 enzyme activity assay (SRCtide phosphorylation, Caliper); type: biochemical; details: 1 uM ATP; read-out: JAK3 Inhibition IC50
JAK2 = JAK2 (Homo sapiens (Human), UniProt O60674); assay: JAK2 enzyme activity assay (Thermo Fisher SelectScreen, Z-lyte); type: biochemical; details: read-out: JAK2 Inhibition IC50
Outline: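 Z-lyte FRET kinase assay: 0.12-0.5 ng JAK2 with […] Tyr 06 peptide in 50 mM HEPES pH 7.5, 0.01% BRIJ-35, 10 mM MgCl2, 1 mM EGTA, 1 h reaction before development reagent. 11-point dose-response from […] to 0.34 nM, 2% DMSO; IC50 from 4-parameter fit of emission ratio.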

[2] = test system: IFNγ stimulated STAT1 phosphorylation on Tyr701 (JAK1/2); assay: JAK1/2 cellular target modulation: IFNγ stimulated phospho-STAT1 in PBMC; type: cell-based; details: human PBMC, IFNγ 10 ng/ml; read-out: Infγ-STAT1 IC50
Outline: (§1)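 Thawed human PBMC (200,000/well, RPMI/10% FBS) were preincubated with compound for 1 h at 37 °C, added from 10× stocks in 1% DMSO. Stimulation and read-out: IL-2 25 ng/ml, 5 min, pSTAT5 by MSD; IL-12 1.7 ng/ml, 25 min, pSTAT4 by MSD; IFNγ 10 ng/ml, 10 min, pSTAT1 by sandwich ELISA.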

[3] = test system: IL-2 stimulated STAT5 phosphorylation on Tyr694 (JAK1/3); assay: JAK1/3 cellular target modulation: IL-2 stimulated phospho-STAT5 in PBMC; type: cell-based; details: human PBMC, IL-2 25 ng/ml; read-out: IL2-STAT5 IC50
Outline: as §1

JAK1 = JAK1 (Homo sapiens (Human), UniProt P23458); assay: JAK1 enzyme activity assay (Thermo Fisher SelectScreen, Z-lyte); type: biochemical; details: read-out: JAK1 Inhibition IC50
Outline: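 Z-lyte assay with 21.2-91.5 ng JAK and […] Tyr 06 in 50 mM HEPES pH 7.0, 10 mM MgCl2, 1 mM EGTA, 0.01% BRIJ-35; 1 h kinase reaction, then development reagent. 11-point dose-response from […] to 0.34 nM, 2% DMSO vehicle; IC50 from 4-parameter logistic fit of emission ratio.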

JAK1, sequence (P23458 whole entry): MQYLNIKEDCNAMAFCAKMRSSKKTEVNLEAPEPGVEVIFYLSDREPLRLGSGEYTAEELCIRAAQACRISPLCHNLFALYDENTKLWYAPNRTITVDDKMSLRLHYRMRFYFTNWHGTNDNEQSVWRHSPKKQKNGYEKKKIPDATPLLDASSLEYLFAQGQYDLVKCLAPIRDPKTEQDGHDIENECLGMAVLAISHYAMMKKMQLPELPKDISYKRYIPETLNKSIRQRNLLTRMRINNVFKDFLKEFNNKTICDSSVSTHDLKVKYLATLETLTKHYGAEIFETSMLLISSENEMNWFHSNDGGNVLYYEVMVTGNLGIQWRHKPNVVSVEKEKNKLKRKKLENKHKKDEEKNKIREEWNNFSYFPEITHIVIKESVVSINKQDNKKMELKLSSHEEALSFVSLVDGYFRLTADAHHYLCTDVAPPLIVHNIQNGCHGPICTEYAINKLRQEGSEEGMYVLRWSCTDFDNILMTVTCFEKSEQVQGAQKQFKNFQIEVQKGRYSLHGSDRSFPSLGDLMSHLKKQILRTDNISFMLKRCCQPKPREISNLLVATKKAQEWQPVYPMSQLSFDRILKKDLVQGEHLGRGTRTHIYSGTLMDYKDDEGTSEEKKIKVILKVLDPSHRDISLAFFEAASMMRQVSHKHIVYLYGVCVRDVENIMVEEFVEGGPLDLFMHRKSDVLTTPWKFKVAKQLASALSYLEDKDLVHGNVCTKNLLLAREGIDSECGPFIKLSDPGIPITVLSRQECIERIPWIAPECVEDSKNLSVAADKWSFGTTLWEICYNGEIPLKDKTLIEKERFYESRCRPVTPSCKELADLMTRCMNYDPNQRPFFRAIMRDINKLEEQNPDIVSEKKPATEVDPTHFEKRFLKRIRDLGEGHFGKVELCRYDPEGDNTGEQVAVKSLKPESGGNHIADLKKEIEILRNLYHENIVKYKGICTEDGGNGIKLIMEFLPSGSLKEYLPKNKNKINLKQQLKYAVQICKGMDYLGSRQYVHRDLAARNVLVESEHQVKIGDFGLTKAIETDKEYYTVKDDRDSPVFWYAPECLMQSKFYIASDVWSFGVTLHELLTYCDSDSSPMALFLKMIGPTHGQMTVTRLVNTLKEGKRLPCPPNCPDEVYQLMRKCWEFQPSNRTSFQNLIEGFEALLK
JAK3 (a.a. 781-1124), sequence (P52333 781-1124): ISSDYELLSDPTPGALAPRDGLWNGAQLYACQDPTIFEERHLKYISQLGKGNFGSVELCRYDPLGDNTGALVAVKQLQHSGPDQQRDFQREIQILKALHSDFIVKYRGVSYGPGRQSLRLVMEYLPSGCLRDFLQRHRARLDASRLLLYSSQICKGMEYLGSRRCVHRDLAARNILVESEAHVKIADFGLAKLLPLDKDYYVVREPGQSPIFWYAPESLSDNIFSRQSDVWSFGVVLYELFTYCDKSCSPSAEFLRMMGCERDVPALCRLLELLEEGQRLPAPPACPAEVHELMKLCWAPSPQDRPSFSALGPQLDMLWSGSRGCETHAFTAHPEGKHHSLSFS
Tyk-2, sequence (P29597 whole entry): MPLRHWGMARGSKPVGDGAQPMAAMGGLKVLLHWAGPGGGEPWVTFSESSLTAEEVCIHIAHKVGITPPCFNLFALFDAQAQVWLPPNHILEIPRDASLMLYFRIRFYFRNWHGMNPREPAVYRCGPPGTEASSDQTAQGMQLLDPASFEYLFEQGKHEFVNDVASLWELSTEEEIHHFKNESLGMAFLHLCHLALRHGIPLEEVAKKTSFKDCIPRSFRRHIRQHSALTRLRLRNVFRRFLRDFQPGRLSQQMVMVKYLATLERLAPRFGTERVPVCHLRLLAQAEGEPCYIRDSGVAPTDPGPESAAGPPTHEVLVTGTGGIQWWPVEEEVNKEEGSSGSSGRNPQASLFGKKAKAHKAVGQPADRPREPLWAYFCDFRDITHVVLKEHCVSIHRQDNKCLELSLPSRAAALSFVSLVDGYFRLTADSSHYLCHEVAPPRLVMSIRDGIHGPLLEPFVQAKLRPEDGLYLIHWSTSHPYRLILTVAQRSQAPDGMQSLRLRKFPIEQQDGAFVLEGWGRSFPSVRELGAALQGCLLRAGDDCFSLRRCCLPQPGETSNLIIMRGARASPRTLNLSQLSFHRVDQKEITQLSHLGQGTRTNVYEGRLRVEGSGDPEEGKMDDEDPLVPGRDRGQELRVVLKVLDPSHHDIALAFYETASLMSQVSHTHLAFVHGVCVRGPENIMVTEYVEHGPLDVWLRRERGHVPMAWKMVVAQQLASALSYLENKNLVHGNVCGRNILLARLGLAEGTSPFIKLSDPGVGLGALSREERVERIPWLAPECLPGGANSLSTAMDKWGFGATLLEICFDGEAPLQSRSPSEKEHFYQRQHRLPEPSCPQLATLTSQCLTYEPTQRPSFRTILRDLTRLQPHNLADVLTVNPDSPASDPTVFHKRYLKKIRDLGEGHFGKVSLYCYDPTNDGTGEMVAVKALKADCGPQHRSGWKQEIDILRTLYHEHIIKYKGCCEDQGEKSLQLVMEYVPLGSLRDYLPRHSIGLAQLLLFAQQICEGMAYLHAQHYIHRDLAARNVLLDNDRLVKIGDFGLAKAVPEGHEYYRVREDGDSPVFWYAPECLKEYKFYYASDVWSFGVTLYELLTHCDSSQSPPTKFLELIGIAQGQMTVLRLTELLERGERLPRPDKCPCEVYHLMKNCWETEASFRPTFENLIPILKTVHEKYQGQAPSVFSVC
JAK2, sequence (O60674 whole entry): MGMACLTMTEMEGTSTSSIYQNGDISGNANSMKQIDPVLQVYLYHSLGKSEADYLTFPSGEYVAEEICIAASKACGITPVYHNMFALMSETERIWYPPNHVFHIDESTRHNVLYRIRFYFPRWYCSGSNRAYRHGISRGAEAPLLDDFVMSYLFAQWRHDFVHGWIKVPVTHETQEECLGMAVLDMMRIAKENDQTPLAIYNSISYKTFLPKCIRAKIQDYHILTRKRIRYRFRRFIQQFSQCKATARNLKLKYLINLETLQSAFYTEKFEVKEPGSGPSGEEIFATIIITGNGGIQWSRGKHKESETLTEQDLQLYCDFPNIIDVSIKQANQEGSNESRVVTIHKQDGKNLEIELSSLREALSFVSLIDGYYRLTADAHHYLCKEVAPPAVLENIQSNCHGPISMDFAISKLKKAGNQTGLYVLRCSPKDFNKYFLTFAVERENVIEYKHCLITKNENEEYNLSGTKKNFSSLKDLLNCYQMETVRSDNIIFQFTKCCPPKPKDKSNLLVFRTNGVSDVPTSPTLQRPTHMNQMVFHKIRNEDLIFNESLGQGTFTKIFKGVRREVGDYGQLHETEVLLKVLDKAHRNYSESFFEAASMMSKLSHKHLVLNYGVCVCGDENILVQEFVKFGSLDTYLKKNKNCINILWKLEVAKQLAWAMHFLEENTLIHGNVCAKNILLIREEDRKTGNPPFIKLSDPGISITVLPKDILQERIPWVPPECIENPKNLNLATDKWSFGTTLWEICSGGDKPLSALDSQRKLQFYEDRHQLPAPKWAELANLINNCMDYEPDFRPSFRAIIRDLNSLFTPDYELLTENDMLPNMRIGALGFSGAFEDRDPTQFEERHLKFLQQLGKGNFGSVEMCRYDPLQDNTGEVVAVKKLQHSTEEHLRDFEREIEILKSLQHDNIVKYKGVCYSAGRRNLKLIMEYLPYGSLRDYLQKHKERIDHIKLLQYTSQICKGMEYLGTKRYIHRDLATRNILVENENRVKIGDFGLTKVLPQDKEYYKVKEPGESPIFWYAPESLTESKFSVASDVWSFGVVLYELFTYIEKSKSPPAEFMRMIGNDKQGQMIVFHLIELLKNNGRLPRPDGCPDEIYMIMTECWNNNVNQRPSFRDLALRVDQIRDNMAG

Row | SMILES | IC50 (Tyk-2) [nM] | IC50 [1] [nM] | IC50 (JAK3 (a.a. 781-1124)) [nM] | IC50 (JAK2) [nM] | IC50 [2] [nM] | IC50 [3] [nM] | IC50 (JAK1) [nM]
1 | N#CCCN1CCC[C@@H](Nc2c(-c3ncco3)cnc3[nH]ccc23)C1 [Example 27, (R)-3-(3-((5-(oxazol-2-yl)-1H-pyrrolo[2,3-b]pyridin-4-yl)amino)piperidin-1-yl)propanenitrile] | 100 to 1000 | > 1000 | ≤ 10 | 10 to 100 | > 1000 | 100 to 1000 | 10 to 100
2 | CNC(=O)c1coc(-c2cnc3[nH]ccc3c2N[C@@H]2CC[C@H](C)N(C(=O)CC#N)C2)n1 [Example 30, 2-(4-(((3R,6S)-1-(2-cyanoacetyl)-6-methylpiperidin-3-yl)amino)-1H-pyrrolo[2,3-b]pyridin-5-yl)-N-methyloxazole-4-carboxamide] | ≤ 10 | > 1000 | 100 to 1000 | ≤ 10 | 100 to 1000 | 100 to 1000 | ≤ 10
3 | CN(C)C(=O)c1coc(-c2cnc3[nH]ccc3c2N[C@@H]2CCCN(C(=O)CC#N)C2)n1 [Example 34, (R)-2-(4-((1-(2-cyanoacetyl)piperidin-3-yl)amino)-1H-pyrrolo[2,3-b]pyridin-5-yl)-N,N-dimethyl-oxazole-4-carboxamide] | 10 to 100 | > 1000 | ≤ 10 | 10 to 100 | 100 to 1000 | 100 to 1000 | ≤ 10
4 | Cc1cnc(-c2cnc3[nH]ccc3c2N[C@@H]2CCCN(C(=O)CC#N)C2)o1 [Example 36, (R)-3-(3-((5-(5-methyloxazol-2-yl)-1H-pyrrolo[2,3-b]pyridin-4-yl)amino)piperidin-1-yl)-3-oxopropanenitrile] | ≤ 10 | 100 to 1000 | ≤ 10 | ≤ 10 | ≤ 100 | ≤ 100 | ≤ 10
5 | N#CCC(=O)N1CCC[C@@H](Nc2c(-c3ccsn3)cnc3[nH]ccc23)C1 [Example 41, (R)-3-(3-((5-(isothiazol-3-yl)-1H-pyrrolo[2,3-b]pyridin-4-yl)amino)piperidin-1-yl)-3-oxopropanenitrile] | ≤ 10 | 100 to 1000 | ≤ 10 | ≤ 10 | 100 to 1000 | ≤ 100 | ≤ 10
6 | CCOC(=O)c1cnc(-c2cnc3[nH]ccc3c2N[C@@H]2CCCN(C(=O)CC#N)C2)s1 [Example 42, ethyl (R)-2-(4-((1-(2-cyanoacetyl)piperidin-3-yl)amino)-1H-pyrrolo[2,3-b]pyridin-5-yl)thiazole-5-carboxylate] | ≤ 10 | 100 to 1000 | ≤ 10 | ≤ 10 | 100 to 1000 | ≤ 100 | ≤ 10
7 | N#CCC(=O)N1CCC[C@@H](Nc2c(-c3cccc(N)n3)cnc3[nH]ccc23)C1 [Example 44, (R)-3-(3-((5-(6-aminopyridin-2-yl)-1H-pyrrolo[2,3-b]pyridin-4-yl)amino)piperidin-1-yl)-3-oxopropanenitrile] | 10 to 100 | > 1000 | 10 to 100 | 10 to 100 | 100 to 1000 | 100 to 1000 | ≤ 10

Second part, the compound after the results:

Row | IC50 (Tyk-2) [nM] | IC50 [1] [nM] | IC50 (JAK3 (a.a. 781-1124)) [nM] | IC50 (JAK2) [nM] | IC50 [2] [nM] | IC50 [3] [nM] | IC50 (JAK1) [nM] | SMILES
8 | 10 to 100 | > 1000 | 10 to 100 | 10 to 100 | 100 to 1000 | ≤ 100 | ≤ 10 | Cc1cc(-c2cnc3[nH]ccc3c2N[C@@H]2CCCN(C(=O)CC#N)C2)[nH]n1 [Example 26, (R)-3-(3-((5-(3-methyl-1H-pyrazol-5-yl)-1H-pyrrolo[2,3-b]pyridin-4-yl)amino)piperidin-1-yl)-3-oxopropanenitrile]
9 | ≤ 10 | 100 to 1000 | ≤ 10 | ≤ 10 | ≤ 100 | ≤ 100 | ≤ 10 | C[C@H]1CC[C@@H](Nc2c(-c3ncco3)cnc3[nH]ccc23)CN1C(=O)CC#N [Example 28, 3-((2S,5R)-2-methyl-5-((5-(oxazol-2-yl)-1H-pyrrolo[2,3-b]pyridin-4-yl)amino)piperidin-1-yl)-3-oxopropanenitrile]
10 | 100 to 1000 | > 1000 | ≤ 10 | 10 to 100 | 100 to 1000 | ≤ 100 | 10 to 100 | NC(=O)c1coc(-c2cnc3[nH]ccc3c2N[C@H]2CC[C@@H](O)C2)n1 [Example 29, 2-(4-(((1S,3R)-3-hydroxycyclopentyl)amino)-1H-pyrrolo[2,3-b]pyridin-5-yl)oxazole-4-carboxamide]
11 | 10 to 100 | > 1000 | ≤ 10 | 10 to 100 | 100 to 1000 | ≤ 100 | ≤ 10 | CNC(=O)c1coc(-c2cnc3[nH]ccc3c2N[C@@H]2CCCN(C(=O)CC#N)C2)n1 [Example 33, (R)-2-(4-((1-(2-cyanoacetyl)piperidin-3-yl)amino)-1H-pyrrolo[2,3-b]pyridin-5-yl)-N-methyloxazole-4-carboxamide]
12 | 10 to 100 | > 1000 | ≤ 10 | 10 to 100 | 100 to 1000 | ≤ 100 | ≤ 10 | Cc1cnc(-c2cnc3[nH]ccc3c2N[C@@H]2CCCN(CCC#N)C2)o1 [Example 37, (R)-3-(3-((5-(5-methyloxazol-2-yl)-1H-pyrrolo[2,3-b]pyridin-4-yl)amino)piperidin-1-yl)propanenitrile]
13 | 100 to 1000 | > 1000 | 10 to 100 | 10 to 100 | > 1000 | 100 to 1000 | 10 to 100 | N#CCC(=O)N1CCC[C@@H](Nc2c(-c3ncon3)cnc3[nH]ccc23)C1 [Example 38, (R)-3-(3-((5-(1,2,4-oxadiazol-3-yl)-1H-pyrrolo[2,3-b]pyridin-4-yl)amino)piperidin-1-yl)-3-oxopropanenitrile]
14 | ≤ 10 | ≤ 100 | ≤ 10 | ≤ 10 | ≤ 100 | ≤ 100 | ≤ 10 | C[C@H]1C[C@@H](Nc2c(-c3ccn(C(F)F)n3)cnc3[nH]ccc23)CN(C(=O)CC#N)C1 [Example 40, 3-((3R,5S)-3-((5-(1-(difluoromethyl)-1H-pyrazol-3-yl)-1H-pyrrolo[2,3-b]pyridin-4-yl)amino)-5-methylpiperidin-1-yl)-3-oxopropanenitrile]
15 | 10 to 100 | > 1000 | 10 to 100 | 10 to 100 | 100 to 1000 | ≤ 100 | ≤ 10 | COc1nccc(-c2cnc3[nH]ccc3c2N[C@@H]2CCCN(C(=O)CC#N)C2)n1 [Example 43, (R)-3-(3-((5-(2-methoxypyrimidin-4-yl)-1H-pyrrolo[2,3-b]pyridin-4-yl)amino)piperidin-1-yl)-3-oxopropanenitrile]

— patent US11420966B2 (ACLARIS THERAPEUTICS, INC., priority 2019, dated 2022)
